Molecular target: T1, hMC2 receptor (crude hMC2R membranes from CRE-bla-CHO-K1 cells stably expressing hMC2 receptor and hMRAP accessory protein) (Homo sapiens, UniProt Q01718)
T1 construct: crude membrane fractions
Assay: hMC2 membrane binding assay ([125I]ACTH (1-39) Tyr23, SPA)
Settings: displacement of 0.2 nM [125I]ACTH (1-39) Tyr23 from hMC2R membranes, 1.5 hours at room temperature; read-out: MC2R binding potency
Summary of the method: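 Ki values come from non-linear regression of SPA scintillation counts, with compounds displacing [125I]ACTH(1-39) Tyr23. Membranes come from CRE-bla-CHO-K1 cells stably expressing hMC2 receptor together with hMRAP. They are preincubated with WGA-coated PVT SPA beads in 50 mM HEPES pH 7.4 with 0.20% BSA, Mg2+, Ca2+ and protease inhibitors.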

T1 sequence (Q01718 whole entry): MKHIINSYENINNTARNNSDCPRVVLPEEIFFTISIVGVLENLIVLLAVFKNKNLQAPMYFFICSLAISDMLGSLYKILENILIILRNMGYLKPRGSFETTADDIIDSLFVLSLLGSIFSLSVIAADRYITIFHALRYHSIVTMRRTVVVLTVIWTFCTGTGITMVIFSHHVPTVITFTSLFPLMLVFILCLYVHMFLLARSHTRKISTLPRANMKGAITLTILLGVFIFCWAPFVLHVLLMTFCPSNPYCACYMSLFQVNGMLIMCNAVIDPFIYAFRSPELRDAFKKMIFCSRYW
T1 sequence (Q8TCY5 whole entry partner): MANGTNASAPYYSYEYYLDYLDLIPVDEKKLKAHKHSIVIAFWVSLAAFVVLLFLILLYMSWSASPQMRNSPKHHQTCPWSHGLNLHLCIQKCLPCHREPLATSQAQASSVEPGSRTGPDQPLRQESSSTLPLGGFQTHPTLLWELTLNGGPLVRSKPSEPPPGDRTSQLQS

Molecule	Ki [nM]
COc1ccccc1-c1ccc(C2(C(=O)N[C@H]3CCN(C)C3)CCN(c3ccc(Cl)cc3C#N)CC2)cn1 [Compound 1-91, 1-(4-chloro-2-cyanophenyl)-4-[6-(2-methoxyphenyl)pyridin-3-yl]-N-[(3S)-1-methylpyrrolidin-3-yl]piperidine-4-carboxamide]	< 10
CN1CC[C@H](NC(=O)C2(c3ccc(-c4cccn4C)nn3)CCN(c3ccc(C(F)(F)F)cc3Cl)CC2)C1 [Compound 1-169, 1-[2-chloro-4-(trifluoromethyl)phenyl]-4-[6-(1-methyl-1H-pyrrol-2-yl)pyridazin-3-yl]-N-[(3S)-1-methylpyrrolidin-3-yl]piperidine-4-carboxamide]	< 10
CN1CC[C@@H](NC(=O)C2(c3ccc(-c4ccccc4C(F)(F)F)nc3)CCN(c3ccc(C(F)(F)F)cc3C#N)CC2)C1 [Compound 1-77, 1-[2-cyano-4-(trifluoromethyl)phenyl]-N-[(3R)-1-methylpyrrolidin-3-yl]-4-{6-[2-(trifluoromethyl)phenyl]pyridin-3-yl}piperidine-4-carboxamide]	< 10
CCOc1ccccc1-c1ccc(C2(NC(=O)[C@@H]3CCN(C)C3)CCN(c3ccc(Cl)cc3C#N)CC2)cn1 [Compound 2-29, (3R)—N-[1-(4-chloro-2-cyanophenyl)-4-[6-(2-ethoxyphenyl)pyridin-3-yl]piperidin-4-yl]-1-methylpyrrolidine-3-carboxamide]	< 10
CCOc1ncccc1-c1ccc(C2(C(=O)N[C@@H]3CN4CCC3CC4)CCN(c3ccc(C(F)(F)F)cc3C#N)CC2)cn1 [Compound 1-20, N-[(3S)-1-azabicyclo[2.2.2]octan-3-yl]-1-[2-cyano-4-(trifluoromethyl)phenyl]-4-{2′-ethoxy-[2,3′-bipyridin]-5-yl}piperidine-4-carboxamide]	< 10
CCOc1ncccc1-c1ccc(C2(NC(=O)[C@H]3CCN(C)C3)CCN(c3ccc(Cl)cc3C#N)CC2)cn1 [Compound 2-39, (3S)—N-[1-(4-chloro-2-cyanophenyl)-4-{2′-ethoxy-[2,3′-bipyridin]-5-yl}piperidin-4-yl]-1-methylpyrrolidine-3-carboxamide]	< 10
CCOc1ncccc1-c1ccc(C2(C(=O)N[C@@H]3CCN(C)C3)CCN(c3ccc(C(F)(F)F)cc3C#N)CC2)nc1 [Compound 1-22, 1-[2-cyano-4-(trifluoromethyl)phenyl]-4-{2′-ethoxy-[3,3′-bipyridin]-6-yl}-N-[(3R)-1-methylpyrrolidin-3-yl]piperidine-4-carboxamide]	< 10
CCOc1ncccc1-c1ccc(C2(NC(=O)[C@@H]3CCNC3)CCN(c3ccc(C(F)(F)F)cc3C#N)CC2)cn1 [Compound 2-6, (3R)—N-{1-[2-cyano-4-(trifluoromethyl)phenyl]-4-{2′-ethoxy-[2,3′-bipyridin]-5-yl}piperidin-4-yl}pyrrolidine-3-carboxamide]	< 10
CCOc1ncccc1-c1ccc(C2(C(=O)N[C@H]3CCN(C)C3)CCN(c3ccc(OC(F)(F)F)cc3C#N)CC2)cn1 [Compound 1-39, 1-[2-cyano-4-(trifluoromethoxy)phenyl]-4-{2′-ethoxy-[2,3′-bipyridin]-5-yl}-N-[(3S)-1-methylpyrrolidin-3-yl]piperidine-4-carboxamide]	< 10
CCOc1ccccc1-c1ccc(C2(C(=O)NCCNC)CCN(c3ccc(C(F)(F)F)cc3Cl)CC2)cn1 [Compound 1-230, 1-[2-chloro-4-(trifluoromethyl)phenyl]-4-[6-(2-ethoxyphenyl)pyridin-3-yl]-N-[2-(methylamino)ethyl]piperidine-4-carboxamide]	< 10
COc1ccccc1-c1ccc(C2(C(=O)NC[C@@H]3CCN3)CCN(c3ccc(C(F)(F)F)cc3C#N)CC2)cn1 [Compound 1-213, N-{[(2S)-azetidin-2-yl]methyl}-1-[2-cyano-4-(trifluoromethyl)phenyl]-4-[6-(2-methoxyphenyl)pyridin-3-yl]piperidine-4-carboxamide]	< 10
COc1ccccc1-c1ncc(C2(NC(=O)CN(C)C)CCN(c3ccc(C(F)(F)F)cc3C#N)CC2)cc1F [Compound 2-61, N-{1-[2-cyano-4-(trifluoromethyl)phenyl]-4-[5-fluoro-6-(2-methoxyphenyl)pyridin-3-yl]piperidin-4-yl}-2-(dimethylamino)acetamide]	< 10
CNCCC(=O)NC1(c2cnc(-c3ccccc3OC)c(F)c2)CCN(c2ccc(C(F)(F)F)cc2C#N)CC1 [Compound 2-63, N-{1-[2-cyano-4-(trifluoromethyl)phenyl]-4-[5-fluoro-6-(2-methoxyphenyl)pyridin-3-yl]piperidin-4-yl}-3-(methylamino)propanamide]	< 10
CO[C@@H]1CN(C)C[C@@H]1NC(=O)C1(c2ccc(-c3cccn3C)nc2)CCN(c2ccc(C(F)(F)F)cc2C#N)CC1 (racemic) [Compound 1-267, rac-1-[2-cyano-4-(trifluoromethyl)phenyl]-N-[(3S,4R)-4-methoxy-1-methylpyrrolidin-3-yl]-4-[6-(1-methyl-1H-pyrrol-2-yl)pyridin-3-yl]piperidine-4-carboxamide]	< 10
CCOc1ncccc1-c1ccc(C2(NC(=O)CN(C)C)CCN(c3ccc(Cl)cc3C#N)CC2)cn1 [Compound 2-38, N-[1-(4-chloro-2-cyanophenyl)-4-{2′-ethoxy-[2,3′-bipyridin]-5-yl}piperidin-4-yl]-2-(dimethylamino)acetamide]	< 10
CCOc1ncccc1-c1ccc(C2(C(=O)N[C@H]3CCN(C)C3)CCN(c3ccc(C(F)(F)F)cc3)CC2)cn1 [Compound 1-33, 4-{2′-ethoxy-[2,3′-bipyridin]-5-yl}-N-[(3S)-1-methylpyrrolidin-3-yl]-1-[4-(trifluoromethyl)phenyl]piperidine-4-carboxamide]	< 10
(3R)-1-methylpyrrolidin-3-yl N-{1-[2-cyano-4-(trifluoromethyl)phenyl]-4-{2′-ethoxy-[2,3′-bipyridin]-5-yl}piperidin-4-yl}carbamate [Compound 2-22]	< 10
CN(C)[C@@H](CO)CNC(=O)C1(c2ccc(-c3cccn3C)nc2)CCN(c2ccc(C(F)(F)F)cc2C#N)CC1 [Compound 1-275, 1-[2-cyano-4-(trifluoromethyl)phenyl]-N-[(2R)-2-(dimethylamino)-3-hydroxypropyl]-4-[6-(1-methyl-1H-pyrrol-2-yl)pyridin-3-yl]piperidine-4-carboxamide]	< 10
CCOc1ncccc1-c1ccc(C2(C(=O)N[C@H]3CCN(C)C3)CCN(c3ccc(Cl)cc3C#N)CC2)nn1 [Compound 1-139, 1-(4-chloro-2-cyanophenyl)-4-[6-(2-ethoxypyridin-3-yl)pyridazin-3-yl]-N-[(3S)-1-methylpyrrolidin-3-yl]piperidine-4-carboxamide]	< 10
COc1ccccc1-c1ccc(C2(NC(=O)OCCN(C)C)CCN(c3ccc(C(F)(F)F)cc3C#N)CC2)cn1 [Compound 2-57, 2-(dimethylamino)ethyl N-{1-[2-cyano-4-(trifluoromethyl)phenyl]-4-[6-(2-methoxyphenyl)pyridin-3-yl]piperidin-4-yl}carbamate]	< 10
Cc1ncncc1-c1ccc(C2(C(=O)N[C@@H]3CCN(C)C3)CCN(c3ccc(C(F)(F)F)cc3C#N)CC2)cn1 [Compound 1-105, 1-[2-cyano-4-(trifluoromethyl)phenyl]-4-[6-(4-methylpyrimidin-5-yl)pyridin-3-yl]-N-[(3R)-1-methylpyrrolidin-3-yl]piperidine-4-carboxamide]	10 to 100
CC(C)CCn1nccc1-c1ccc(C2(C(=O)N[C@@H]3CCN(C)C3)CCN(c3ccc(C(F)(F)F)cc3C#N)CC2)cn1 [Compound 1-70, 1-[2-cyano-4-(trifluoromethyl)phenyl]-4-{6-[1-(3-methylbutyl)-1H-pyrazol-5-yl]pyridin-3-yl}-N-[(3R)-1-methylpyrrolidin-3-yl]piperidine-4-carboxamide]	10 to 100
CCOc1ncccc1-c1ccc(C2(NC(=O)[C@H]3CCN(C)C3)CCN(c3ccc(C(F)(F)F)cc3C#N)CC2)cn1 [Compound 2-9, (3S)—N-{1-[2-cyano-4-(trifluoromethyl)phenyl]-4-{2′-ethoxy-[2,3′-bipyridin]-5-yl}piperidin-4-yl}-1-methylpyrrolidine-3-carboxamide]	< 10
Cn1cccc1-c1ccc(C2(C(=O)N[C@H]3C[C@@H](N)C3)CCN(c3ccc(C(F)(F)F)cc3C#N)CC2)cn1 [Compound 1-233, 1-[2-cyano-4-(trifluoromethyl)phenyl]-4-[6-(1-methyl-1H-pyrrol-2-yl)pyridin-3-yl]-N-[(1S,3S)-3-aminocyclobutyl]piperidine-4-carboxamide]	10 to 100
CCOc1ncccc1-c1ccc(C2(NC(=O)N[C@@H]3CCN(C)C3)CCN(c3ccc(C(F)(F)F)cc3C#N)CC2)cn1 [Compound 2-19, 1-{1-[2-cyano-4-(trifluoromethyl)phenyl]-4-{2′-ethoxy-[2,3′-bipyridin]-5-yl}piperidin-4-yl}-3-[(3R)-1-methylpyrrolidin-3-yl]urea]	< 10
CN1CC[C@H](NC(=O)C2(c3ccc(-c4cccn4C)nc3)CCN(c3ccc(C(F)(F)F)cc3Cl)CC2)C1 [Compound 1-160, 1-[2-chloro-4-(trifluoromethyl)phenyl]-4-[6-(1-methyl-1H-pyrrol-2-yl)pyridin-3-yl]-N-[(3S)-1-methylpyrrolidin-3-yl]piperidine-4-carboxamide]	< 10
CN(C)CC1(NC(=O)C2(c3ccc(-c4cccn4C)nc3)CCN(c3ccc(C(F)(F)F)cc3C#N)CC2)COC1 [Compound 1-262, 1-[2-cyano-4-(trifluoromethyl)phenyl]-N-{3-[(dimethylamino)methyl]oxetan-3-yl}-4-[6-(1-methyl-1H-pyrrol-2-yl)pyridin-3-yl]piperidine-4-carboxamide]	< 10

From patent US12492181B2, “Gem-disubstituted piperidine melanocortin subtype-2 receptor (MC2R) antagonists and uses thereof” (Crinetics Pharmaceuticals, Inc., priority 2019, dated 2025)
